Data: paper PMC9088798, “An Approach to Derive Functional Peptide Inhibitors of Transcription Factor Activity” (JACS Au, 2022)

Assays:
cJun/TRE DNA interaction = molecular target: T1, cJun/TRE DNA interaction (Homo sapiens, UniProt P05412); test: CD TRE DNA peak shift, antagonism of cJun/TRE DNA interaction; assay type: biochemical; conditions: cJun 20 μM, TRE DNA 5 μM, DNA peak ~281 nm, Hill equation; three independent experiments, one SD; pH 7.4
T1 construct: The human cJun bZIP domain spans from Arg252 to Leu308; His-SUMO (N, cleaved yes); AS cap (two residues Ala-Ser) (N); GAP cap (three residues Gly-Ala-Pro) (C); made in house; host or cells: E. coli (pET21-His-SUMO plasmid)
Method: The binding of cJun to TRE DNA can be observed by monitoring a DNA absorbance peak in the CD spectrum centered at ∼281 nm.[44] […] The addition of cJun (20 μM) to TRE DNA (5 μM) decreases this DNA peak by 55% as the cJun engages its target TRE site and alters the DNA structure (Figure 6A). Subsequent titration of HingeW into this bound cJun/TRE DNA mixture reverses the peak shift, with the peak increasing as DNA is released.
Figure 6 HingeW antagonizes cJun/TRE DNA interaction more effectively than A-FosW. (A) CD spectra showing a shift in the TRE DNA peak at ∼281 nm upon addition of cJun, which is reversed by the titration of HingeW into the sample, as HingeW sequesters the cJun in a nonfunctional heterodimer. […] EMSA showing the (C) unbound TRE DNA band shift upon addition of cJun and the subsequent restoration of the unbound DNA band intensity upon titration of either (D) HingeW or (E) A-FosW. (F). For both CD and EMSA, data was averaged from three independent experiments and the plotted error bars indicate one standard deviation. […]
µM) alongside ampicillin, kanamycin and chloramphenicol to maintain the required plasmids, and IPTG (1 mM) to induce protein expression. The library transformants were […]
(§1) increased to the optimum 4 µM in subsequent passages. […] This allows the occurrence of library members to be monitored as winner sequences are selected for. […]

cJun = molecular target: T2, cJun (Homo sapiens, UniProt P05412); test: CD dimer exchange, competition for cJun; assay type: binding; conditions: A-FosW added to preformed HingeW/cJun heterodimer; total peptide 10 μM
T2 construct: The human cJun bZIP domain spans from Arg252 to Leu308; His-SUMO (N, cleaved yes); AS cap (two residues Ala-Ser) (N); GAP cap (three residues Gly-Ala-Pro) (C); made in house; host or cells: E. coli (pET21-His-SUMO plasmid)
Method: Figure 5 TBS winner peptide HingeW binds cJun preferentially over A-FosW. CD spectra (20 °C) show the binding of cJun to either (A) HingeW or (B) A-FosW. […] However, the effect is larger for HingeW, indicating a greater increase in peptide helicity. Similarly, the thermal denaturation of cJun bound to either (C) HingeW or (D) A-FosW is right-shifted from the average of the component peptide denaturation profiles. […]
Direct competition between HingeW and A-FosW for cJun binding was observed using CD dimer exchange experiments in which a solution containing one antagonist/cJun mixture was combined with the other antagonist to observe potential changes in α-helicity, as an indicator of a change in cJun dimerization partner. In this case, when HingeW was mixed with the preformed A-FosW/cJun heterodimer, a 17% increase in helicity was observed, as measured at 222 nm, relative to the average of the component signals (Figure 5E). […]
as §1

T1 sequence (P05412 252-308): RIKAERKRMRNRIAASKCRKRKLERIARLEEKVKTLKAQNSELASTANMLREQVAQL
T2 sequence (P05412 252-308): as above

Sequence: LEQRAEELARENEELEKEAEELEQELDELQAEIEQLEERNYALRKEIEDLQKQLEKL [A-FosW, N-terminal AS and C-terminal GAP caps, 6xHis-tagged]
- IC50 (cJun/TRE DNA interaction): 16 ± 0.4 µM
- dimer exchange on mixing with preformed heterodimer (cJun): no dimer exchange had occurred
